These results are taken from patent publication US10336746B1, “RAD51 inhibitors” (Cyteir Therapeutics, Inc., priority 2017, dated 2019).

The assay relates to Daudi cell line (AID positive). Briefly: Primary screening cell killing assay, Daudi cell line (AID positive). It counts as cell-based. The conditions noted are these: Homo sapiens, 168 h, cell death on Day 7, Cell-Titer Glo. The procedure, abridged:
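AID-positive Daudi cells, 1250 per well, were exposed to serially diluted compounds for 7 days at 37° C. Viability read by CellTiter-Glo luminescence; percent cell death and EC50 derived against untreated wells after media-blank subtraction.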

The structures appear in SMILES notation.

For `CC(C)OC(=O)N[C@H]1CC[C@H](c2ncc(-c3ccc(NC(=O)NCc4ccccc4)cc3S(=O)(=O)NC(C)(C)C)s2)CC1` [Ex. 66A, trans-isopropyl N-[4-[5-[4-(benzylcarbamoylamino)-2-(tert-butylsulfamoyl)phenyl]thiazol-2-yl]cyclohexyl]carbamate], the EC50 – broadly, the concentration giving half of the maximal effect – was not above 100 nM. In the case of `CC(C)OC(=O)Nc1ccc(-c2cnc([C@H]3CC[C@H](NC(=O)OC(C)C)CC3)s2)c(S(=O)(=O)NC(C)(C)C)c1` [Ex. 67A, trans-isopropyl N-[3-(tert-butylsulfamoyl)-4-[2-[4-(isopropoxycarbonylamino)cyclohexyl]thiazol-5-yl]phenyl]carbamate] it was 100 to 1000 nM.
